Earlier results in patent publication US8598145B2, “Mitochondrially delivered anti-cancer compounds” (priority 2008, dated 2013).

How the values were obtained:
[1] = system: Jurkat, HBT11, MCF7, MCF7-C3; details: Table II; cited from earlier work
B16-F1/ nude mice = details: Kogure et al 2005; cited from earlier work
Jurkat, U937, Meso-2 = details: cited from earlier work
MCF7 = details: Arya et al; cited from earlier work
MDA-MB-435, MCF7 = details: cited from earlier work
NB4, HT93 = details: cited from earlier work
[2] = system: Jurkat, HBT1, MCF7, MCF7-C3, U937, Meso-2; details: cited from earlier work

SMILES: Cc1c(C)c2c(c(C)c1OC(=O)C=CC(=O)O)CCC(C)(CCCC(C)CCCC(C)CCCC(C)C)O2 (centres unmarked) [Nr 3]
- IC50 [1]: 22 µM

SMILES: Cc1c(C)c2c(c(C)c1OC(=O)C(=O)O)CCC(C)(CCCC(C)CCCC(C)CCCC(C)C)O2 (centres unmarked) [Nr 10]
- cytotoxicity in mice inoculated with B16-F1 melanoma cells (B16-F1/ nude mice): non-selective cytotoxicity

SMILES: Cc1c(C)c2c(c(C)c1OC(=O)CC(=O)O)CCC(C)(CCCC(C)CCCC(C)CCCC(C)C)O2 (centres unmarked) [Nr 11]
- cytotoxicity in mice inoculated with B16-F1 melanoma cells (B16-F1/ nude mice): non-selective cytotoxicity

SMILES: Cc1c(C)c2c(c(C)c1NC(=O)CCC(=O)O)CCC(C)(CCCC(C)CCCC(C)CCCC(C)C)O2 (centres unmarked) [Nr 12]
- IC50 (Jurkat, U937, Meso-2): 13 µM

SMILES: Cc1c(C)c2c(c(C)c1NC(=O)C=CC(=O)O)CCC(C)(CCCC(C)CCCC(C)CCCC(C)C)O2 (centres unmarked) [Nr 13]
- IC50 (Jurkat, U937, Meso-2): 2 µM

SMILES: COC(=O)CCC(=O)Nc1c(C)c(C)c2c(c1C)CCC(C)(CCCC(C)CCCC(C)CCCC(C)C)O2 (centres unmarked) [Nr 14]
- IC50 (Jurkat, U937, Meso-2): > 100 µM

SMILES: Cc1c(C)c2c(c(C)c1OC(=O)C(N)CCCCN)CCC(C)(CCCC(C)CCCC(C)CCCC(C)C)O2 (centres unmarked) [Nr 16]
- IC50 (MCF7): 12 µM

SMILES: Cc1c(C)c2c(c(C)c1OCC(=O)O)CCC(C)(CCCC(C)CCCC(C)CCCC(C)C)O2 (centres unmarked) [Nr 21]
- EC50 (MDA-MB-435, MCF7): 15 to 20 µg/mL

SMILES: CC1=C(/C=C/C(C)=C/C=C/C(C)=C/C(=O)Oc2c(C)c(C)c3c(c2C)CCC(C)(CCCC(C)CCCC(C)CCCC(C)C)O3)C(C)(C)CCC1 (centres unmarked) [Nr 28]
- IC50 (NB4, HT93): 0.1 to 1 µM

SMILES: Cc1cc(OC(=O)CCC(=O)O)c(C)c2c1OC(C)(CCCC(C)CCCC(C)CCCC(C)C)CC2 (centres unmarked) [Nr 32]
- IC50, printed relative to α-TOS [2]: 50% of α-TOS

SMILES: Cc1cc(OC(=O)CCC(=O)O)cc2c1OC(C)(CCCC(C)CCCC(C)CCCC(C)C)CC2 (centres unmarked) [Nr 35]
- IC50 [1]: 66 µM

SMILES: Cc1cc(OC(=O)C=CC(=O)O)cc2c1OC(C)(CCCC(C)CCCC(C)CCCC(C)C)CC2 (centres unmarked) [Nr 36]
- IC50 [1]: 49 µM

SMILES: Cc1cc(NC(=O)CCC(=O)O)cc2c1OC(C)(CCCC(C)CCCC(C)CCCC(C)C)CC2 (centres unmarked) [Nr 37]
- IC50 (Jurkat, U937, Meso-2): 20 µM

SMILES: Cc1cc(NC(=O)C=CC(=O)O)cc2c1OC(C)(CCCC(C)CCCC(C)CCCC(C)C)CC2 (centres unmarked) [Nr 38]
- IC50 (Jurkat, U937, Meso-2): 9 µM
